Measured values: patent publication US20090069302A1 (SMITHKLINE BEECHAM CORPORATION, priority 2006, published 2009)

Columns and labels:
[1] = biological target: T1, AXOR109 (Homo sapiens, UniProt Q8TDU6); assay: Human AXOR109/Melanophore Assay; type: cell-based; settings: melanophore assay
T1 construct: expressed in transfected cells; host or cells: melanophore cells, transfected by electroporation
T1 sequence (Q8TDU6 1-330): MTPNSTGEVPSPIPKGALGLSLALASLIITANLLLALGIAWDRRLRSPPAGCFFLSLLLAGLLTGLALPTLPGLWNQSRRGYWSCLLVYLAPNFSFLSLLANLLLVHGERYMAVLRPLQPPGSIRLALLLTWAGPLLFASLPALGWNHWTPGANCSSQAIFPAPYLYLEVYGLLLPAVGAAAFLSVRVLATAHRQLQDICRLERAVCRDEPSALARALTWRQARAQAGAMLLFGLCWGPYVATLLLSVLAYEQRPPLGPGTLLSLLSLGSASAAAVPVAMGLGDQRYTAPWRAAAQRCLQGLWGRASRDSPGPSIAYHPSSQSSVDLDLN
Outline: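 Readout is melanosome dispersion in melanophores electroporated with human AXOR109, in buffer containing 10 nM melatonin and 1% DMSO. Transmittance was read before and after 1 h compound exposure across 11-point 3-fold dilutions. Response was normalized to 200 nM alpha-MSH as system max, and pEC50 was obtained from a Hill fit.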

[2] = system: GK rats; assay: Effect on glucose, insulin and GLP-1 secretion in GK rats after oral glucose; type: in vivo, rat; set-up: Glucose changes / Insulin changes / GLP-1 changes: unit not given here; settings: for GLP-1 changes: active GLP-1, DPPIV inhibitor pretreated; for GLP-1 changes / Insulin changes / Glucose changes: 5 mg/kg intracolonic at −30 min, glucose 1 g/kg oral at 0 min; for Insulin changes: plasma; for Insulin changes / Glucose changes: DPPIV inhibitor pretreated; for Glucose changes: whole blood
Method: Eight week old conscious GK rats (four per group) were pretreated with a DPPIV inhibitor immediately after control blood sampling at −40 min (black arrow), and dosed with vehicle (0.5% HPMC/0.1% Tween80) or 5 mg/kg Example 14 through intracolonic injection at −30 time point (blue arrow). Glucose (1 g/kg) was given orally at 0 min. Blood samples were collected at −40, 0, 5, 15, 30, 60, 90 and 120 minutes after dosing. Whole blood glucose, plasma insulin, and active GLP-1 were measured (ELISA kits, LINCO). […] The results are listed in Tables 3a, 3b, and 3c, and graphically represented in FIGS. 2a, 2b, and 2c, respectively.

## COc1ccc(S(=O)(=O)N(C)CCN(C)S(=O)(=O)c2ccc(OC)c(OC)c2)cc1OC [Example 14, N,N′-1,2-ethanediylbis[N-methyl-3,4-bis(methyloxy)benzenesulfonamide]]
[1]; 1 h, normalized to alpha-MSH system max
  Emax: 51 to 75%
[1]; AXOR109 transfected melanophores
  EC50: < 126 nM
[2]; 5 mg/kg intracolonic, in words
  active GLP-1 and insulin level compared to controls: higher level of active GLP-1 and insulin
  glucose disposal compared to controls: improved glucose disposals
[2]; 0 min
  GLP-1 changes: 15.08
  Insulin changes: 68.06
  Glucose changes: 74.25
[2]; 15 min
  GLP-1 changes: 23.63
  Insulin changes: 366.79
  Glucose changes: 173.75
[2]; 30 min
  GLP-1 changes: 19.58
  Insulin changes: 289.23
  Glucose changes: 174.75
[2]; 60 min
  GLP-1 changes: 23.63
  Insulin changes: 152.33
  Glucose changes: 122.50
[2]; 90 min
  GLP-1 changes: 23.63
  Insulin changes: 146.47
  Glucose changes: 110.00
[2]; 120 min
  GLP-1 changes: 21.15
  Insulin changes: 158.31
  Glucose changes: 114.50
[2]; −40 min (before dosing)
  GLP-1 changes: 12.65
  Insulin changes: 85.82
  Glucose changes: 106.75
